Test system: ABCG1
Assay: Immunoblotting for ABCG1 in MIN6 β-cells
Format: cell-based, mouse
Conditions: MIN6, Q3G-treated
Protocol: The corresponding photographs of the immunoblotting results are also shown. MIN6 cells were incubated for 24 h in the presence of 16 μM Q3G. Cell lysates were analyzed by semi-quantitative immunoblotting using different antibodies successively.
Mouse insulinoma MIN6 cells were cultured in a 5% CO2-95% air atmosphere at 37° C. in DMEM medium containing 10% heat-inactivated fetal bovine serum, 1 mM Na-pyruvate, 2 mM L-glutamine, 25 mM D-glucose, and 28 μM β-mercaptoethanol. Q3G at a specific final concentration was supplemented to the culture medium and incubation was conducted for a selected length of time. Media were collected, spun at 600 g to sediment suspended cells, supplemented with 0.5 volumes of 3×RIPA-PIC (1×: 50 mM Tris-HCl, pH 8, 150 mM NaCl, 1% NP-40, 0.5% Na-deoxycholate and 0.1% SDS and PIC). Cells were lysed in 1×RIPA-PIC for immuno-blotting, or in RNA extraction buffer for qRT-PCR.
Cell lysates were fractionated by SDS-PAGE and electrophoretically transferred onto a polyvinylidene fluoride membrane. […] The signal was captured on X-ray film and immunoreactive bands analyzed by densitometry on a Syngene's ChemiGenius^2XE Bio Imaging System (Cambridge, Mass.) within the dynamic range of the instrument. […]

O=c1c(O[C@@H]2O[C@H](CO)[C@@H](O)[C@H](O)[C@H]2O)c(-c2ccc(O)c(O)c2)oc2cc(O)cc(O)c12 [Q3G, quercetin-3-O-β-D-glucoside]
relative amount of ABCG1 protein compared with mRNA: in concordance with the relative amounts of mRNA

Reference: patent US20150190369A1, “QUERCETIN-3-GLUCOSIDE AND USES THEREOF” (priority 2012, published 2015)
